Measured values published in US20260138969A1 (Korea Research Institute of Chemical Technology, priority 2023, published 2026).

Key:
[1] = tested on: MPTP-induced PD mouse model; experiment: MPTP-induced PD mouse model: dopamine by LC-MS/MS; assay type: in vivo; details: vs MPTP alone group
Procedure: Mice at 7 weeks of age were divided into 7 groups as shown in Table 9 below to generate an acute MPTP model and proceed with drug administration: control group+vehicle (G1), MPTP+vehicle (G2), MPTP+Nilotinib 40 mg/kg (G3), MPTP+Example 3 2 mg/kg (G4), MPTP+Example 3 10 mg/kg (G5), MPTP+Example 3 50 mg/kg (G6), and MPTP+Example 2 50 mg/kg (G7). The test drug was administered orally (PO) at 10 ml/kg once daily (QD) from Day 1 to Day 7. The acute MPTP model will be performed at 2-hour intervals in all groups except the control group. […] was administered as intraperitoneal (IP) injection for 4 doses. The control group was given the same amount of 0.9% saline. The Pole test was performed on day 4 (after training on day 2 and day 3). On day 7, all mice were euthanized, and their brains were harvested.
The amount of dopamine was measured by LC-MS/MS analysis using Agilent 1290 (LC) and SCIEX QTARP 6500+ (QQQ) for the striatum and substantia nigra of the extracted brain tissue.

MDR1 = experiment: MDR-MDCK cell membrane permeability assessment; assay type: in vitro ADME; details: dog; MDCK-MDR1 monolayer
Procedure: (§1) MDCK-MDR1 cells (5×10^5 cells/mL) were incubated on a 24-transwell plate (Corning, NY, USA) for 4 days to measure permeability through a single layer of MDR-MDCK cells. The medium was replaced with a new medium every two days, and the electrical resistance between epithelial tissues (TEER) was measured using a Millicell® ERS-2 Volohmmeter (Merck KGaA, Darmstadt, Germany), and the cell membrane permeability test was performed after confirming that this value was greater than or equal to 300 Ohm.cm^2.
(§2) The apical and basolateral chambers were washed twice each in the order of Hanks' Balanced Salt Solution (HBSS) containing DPBS buffer and 10 mM Hydroxyethyl piperazine Ethane sulfonic acid (HEPES), and in the final washing step, HBSS was filled and maintained at a stable state at 37° C. for 30 minutes. After 30 minutes, the test material was instilled in each chamber and left at 37° C. for 2 hours, and the culture medium of the transferred layer was collected at 30-minute intervals, and the collected amount was supplemented with new HBSS.
(§3) The apparent permeability coefficient (Papp, cm/sec) was calculated using the following formula:
(§4) [formula] • Papp: Apparent permeability • dQ/dt: Permeability of the drug • A: Area of the filter membrane on which the cells are laid • C_0: Initial concentration of the drug
(§5) In addition, the Efflux ratio was calculated as follows: […]

[2] = MDR-MDCK cell membrane permeability assessment; assay type: in vitro ADME; details: dog; MDCK-MDR1 monolayer, 37° C., 2 hours
Procedure: as §1, §2, §3, §4, §5

SH-SY5Y cells = experiment: Cytoprotective effects in MPP+-induced human neurons (CCK-8); assay type: cell-based; details: MPP+ 5 mM induced cytotoxicity, cell viability by CCK-8
Procedure: SH-SY5Y cells were purchased from ATCC and cultured at 37° C. and 5% CO2 in RPMI medium containing 10% FBS and 1% penicillin and streptomycin. MPP+ was purchased from Sigma Aldrich and treated with 5 mM to induce cytotoxicity.

[3] = tested on: α-Syn transgenic Parkinson's disease mouse model; experiment: α-Syn transgenic Parkinson's disease mouse model: neurological score (modified Irwin test); assay type: in vivo; details: Example 3 2/10/50 mg/kg, Example 2 2 mg/kg PO QD 5 months; vs TG+carrier (G2)
Procedure: The test drug was administered once daily (QD) via oral administration (PO) with a solution of 5 ml/kg for 5 months from 4 months to 9 months of age. Motor behavior tests (beam test) and neurological scores (modified Irwin test) were performed at 4 months (before administration), 7 months, and 9 months. After the final behavioral test, tissue samples were taken. Weight was measured on the same day once a week from 4 months of age until the end of the study.
Scores were recorded by direct observation of mice in cages for neurological behavioral disorders, except for startle reflex, tail pinch, and righting reflex. To test the startle reflex, a small remote control was used to make loud noises and check behaviors such as jumping, stopping, and blinking quickly. For the […] reflex, each mouse was removed from the cage and placed with its back facing the floor so that the mouse could correct its posture on its own. The tail pinch reflex was tested by gently squeezing the tip of the tail with forceps.
A score of 0 was given if there were normal or no abnormal features such as motor activity, 1 point if mild abnormalities were observed, and 2 to 3 points were given if serious abnormalities were observed. The scores for all observed behaviors for each mouse were added, and the average of the added scores for each group was calculated.

Row | Compound | dopamine concentration in the substantia nigra ([1]; 2 mg/kg PO QD) | dopamine concentration in the substantia nigra ([1]; 10 mg/kg PO QD) | efflux ratio at 2 h (MDR1) | Papp A→B at 2 h [2] | Papp B→A at 2 h [2] | EC50 (SH-SY5Y cells) | neurological score [3] | dopamine concentration in the striatum ([1]; 50 mg/kg PO QD) | dopamine concentration in the substantia nigra ([1]; 50 mg/kg PO QD)
1 | Cc1cc(F)c(C(=O)Nc2cccc(-n3nnc4c3CCCC4)n2)cc1-n1cnc(C2CC2)c1 [Example 3, 5-(4-cyclopropyl-1H-imidazole-1-yl)-2-fluoro-4-methyl-N-(6-(4,5,6,7-tetrahydro-1H-benzo[d][1,2,3]triazole-1-yl)pyridine-2-yl)benzamide] | significantly increased | significantly increased | 1.13 | 67.3 ± 12.8 ×10⁻⁶ cm/s | 74.8 ± 12.3 ×10⁻⁶ cm/s | 23 nM | significantly reduced the neurological score of TG mice compared to G2 |  | 
2 | Cc1cc(F)c(C(=O)Nc2cccc(-n3nnc4c3CCC4)n2)cc1-n1cnc(C2CC2)c1 [Example 2, 5-(4-cyclopropyl-1H-imidazole-1-yl)-N-(6-(5,6-dihydrocyclopenta[d][1,2,3]triazole-1 (4H)-yl)pyridine-2-yl)-2-fluoro-4-methylbenzamide] |  |  | 1.06 | 93.2 ± 11.2 ×10⁻⁶ cm/s | 99.1 ± 16.8 ×10⁻⁶ cm/s | 64 nM | significantly reduced the neurological score of TG mice compared to G2 | significantly increased | significantly increased
